According to ChEMBL document CHEMBL4354830, “Discovery of Benzo[cd]indol-2(1H)-ones and Pyrrolo[4,3,2-de]quinolin-2(1H)-ones as Bromodomain and Extra-Terminal Domain (BET) Inhibitors with Selectivity for the First Bromodomain with Potential High Efficiency against Acute Gouty Arthritis” (J Med Chem, 2019):

Columns and labels:
[1] = molecular target: Chromatin remodeling regulator CECR2 (Homo sapiens) (UniProt Q9BXF3); test: Binding affinity to CECR2 (unknown origin) assessed as change in melting temperature at 10 uM by SYPRO Orange based differential scanning fluorimetry
[2] = molecular target: T1, Bromodomain-containing protein 4 (Homo sapiens, UniProt O60885); test: Binding affinity to recombinant human N-terminal His-tagged BRD4 BD1 (44 to 170 residues) expressed in Escherichia coli assessed as change in melting temperature at 10 uM by SYPRO Orange based differential scanning fluorimetry
[3] = molecular target: T2, Bromodomain-containing protein 9 (Homo sapiens) (UniProt Q9H8M2); test: Binding affinity to BRD9 BD1 (unknown origin) assessed as change in melting temperature at 10 uM by SYPRO Orange based differential scanning fluorimetry
T2 sequence (whole entry): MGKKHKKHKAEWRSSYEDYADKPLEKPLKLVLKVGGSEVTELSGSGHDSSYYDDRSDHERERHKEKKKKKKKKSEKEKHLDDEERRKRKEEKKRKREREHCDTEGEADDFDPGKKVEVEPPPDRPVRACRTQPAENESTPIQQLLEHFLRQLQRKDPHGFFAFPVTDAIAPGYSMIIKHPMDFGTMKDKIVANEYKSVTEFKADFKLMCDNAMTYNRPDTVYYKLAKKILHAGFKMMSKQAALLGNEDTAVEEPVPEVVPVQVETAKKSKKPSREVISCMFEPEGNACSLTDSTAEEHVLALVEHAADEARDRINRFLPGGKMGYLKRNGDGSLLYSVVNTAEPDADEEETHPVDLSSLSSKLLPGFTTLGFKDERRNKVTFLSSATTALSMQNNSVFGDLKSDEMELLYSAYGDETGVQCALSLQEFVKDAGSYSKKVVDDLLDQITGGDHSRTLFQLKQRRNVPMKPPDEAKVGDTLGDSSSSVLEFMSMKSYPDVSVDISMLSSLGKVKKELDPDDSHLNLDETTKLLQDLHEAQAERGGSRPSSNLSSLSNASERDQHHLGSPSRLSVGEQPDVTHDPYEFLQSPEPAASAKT

[4] = molecular target: CREB-binding protein (Homo sapiens) (UniProt Q92793); test: Binding affinity to CREBBP (unknown origin) assessed as change in melting temperature at 10 uM by SYPRO Orange based differential scanning fluorimetry
[5] = molecular target: T1, Bromodomain-containing protein 4; test: Displacement of tetra-acetylated histone H4 peptide (1-21) from recombinant human N-terminal His-tagged BRD4 BD2 (349 to 460 residues) expressed in Escherichia coli incubated for 30 mins followed by further incubation with tetra-acetylated histone H4 peptide (1-21) for 30 mins by Alphascreen assay
[6] = molecular target: T1, Bromodomain-containing protein 4; test: Displacement of tetra-acetylated histone H4 peptide (1-21) from recombinant human N-terminal His-tagged BRD4 BD1 (44 to 170 residues) expressed in Escherichia coli incubated for 30 mins followed by further incubation with tetra-acetylated histone H4 peptide (1-21) for 30 mins by Alphascreen assay
[7] = Permeability of compound at 10 uM by PAMPA assay; format: ADME; details: read-out: permeability
RAW264.7 = test: Inhibition of LPS-induced NO overproduction in mouse RAW264.7 cells at 1 uM incubated for 2 hrs followed by LPS stimulation and measured after 22 hrs by Griess reagent based assay relative to control; format: functional; details: Mus musculus, RAW264.7

Sequence of Chromatin remodeling regulator CECR2 (Homo sapiens) (Q9BXF3 whole entry, looked up, the tested form may be a part): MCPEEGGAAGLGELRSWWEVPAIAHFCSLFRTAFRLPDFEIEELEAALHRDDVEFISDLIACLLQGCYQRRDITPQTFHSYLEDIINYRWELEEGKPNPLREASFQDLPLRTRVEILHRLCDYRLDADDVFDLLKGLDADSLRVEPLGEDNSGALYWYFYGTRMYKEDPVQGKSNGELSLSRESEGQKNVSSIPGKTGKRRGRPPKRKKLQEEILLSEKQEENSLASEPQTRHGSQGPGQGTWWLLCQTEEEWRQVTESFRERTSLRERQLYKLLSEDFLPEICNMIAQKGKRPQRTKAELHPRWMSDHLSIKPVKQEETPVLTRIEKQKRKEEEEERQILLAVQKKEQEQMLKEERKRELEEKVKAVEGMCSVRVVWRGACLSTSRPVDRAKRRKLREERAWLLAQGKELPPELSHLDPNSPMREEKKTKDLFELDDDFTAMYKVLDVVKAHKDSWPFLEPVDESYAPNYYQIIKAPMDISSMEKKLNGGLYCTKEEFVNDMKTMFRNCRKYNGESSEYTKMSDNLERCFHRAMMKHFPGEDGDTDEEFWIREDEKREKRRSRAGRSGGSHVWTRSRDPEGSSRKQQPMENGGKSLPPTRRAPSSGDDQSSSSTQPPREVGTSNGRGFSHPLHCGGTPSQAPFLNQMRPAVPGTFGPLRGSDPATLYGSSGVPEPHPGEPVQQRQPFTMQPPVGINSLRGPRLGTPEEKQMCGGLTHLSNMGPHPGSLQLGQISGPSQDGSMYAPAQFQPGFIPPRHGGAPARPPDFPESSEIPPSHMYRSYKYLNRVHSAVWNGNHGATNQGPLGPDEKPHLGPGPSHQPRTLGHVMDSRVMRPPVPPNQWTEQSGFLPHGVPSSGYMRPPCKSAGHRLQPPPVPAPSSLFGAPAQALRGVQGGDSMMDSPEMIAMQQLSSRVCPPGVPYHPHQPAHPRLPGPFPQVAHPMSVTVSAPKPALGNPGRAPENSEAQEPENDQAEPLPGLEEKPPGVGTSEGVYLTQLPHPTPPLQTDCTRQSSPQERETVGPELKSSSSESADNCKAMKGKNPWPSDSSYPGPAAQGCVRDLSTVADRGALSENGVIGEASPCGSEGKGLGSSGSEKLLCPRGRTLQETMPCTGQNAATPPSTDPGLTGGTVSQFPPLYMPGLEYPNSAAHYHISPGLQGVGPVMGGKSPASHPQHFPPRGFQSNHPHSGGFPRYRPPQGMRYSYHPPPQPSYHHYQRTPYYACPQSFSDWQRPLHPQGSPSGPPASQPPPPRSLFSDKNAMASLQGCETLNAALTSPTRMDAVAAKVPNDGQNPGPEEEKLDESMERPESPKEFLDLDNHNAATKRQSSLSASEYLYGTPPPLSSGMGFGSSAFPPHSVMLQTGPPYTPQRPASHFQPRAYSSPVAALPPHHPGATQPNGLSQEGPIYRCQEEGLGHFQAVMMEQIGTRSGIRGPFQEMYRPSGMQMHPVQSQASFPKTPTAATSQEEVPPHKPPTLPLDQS
Sequence of CREB-binding protein (Homo sapiens) (Q92793 2-2442 limits assumed): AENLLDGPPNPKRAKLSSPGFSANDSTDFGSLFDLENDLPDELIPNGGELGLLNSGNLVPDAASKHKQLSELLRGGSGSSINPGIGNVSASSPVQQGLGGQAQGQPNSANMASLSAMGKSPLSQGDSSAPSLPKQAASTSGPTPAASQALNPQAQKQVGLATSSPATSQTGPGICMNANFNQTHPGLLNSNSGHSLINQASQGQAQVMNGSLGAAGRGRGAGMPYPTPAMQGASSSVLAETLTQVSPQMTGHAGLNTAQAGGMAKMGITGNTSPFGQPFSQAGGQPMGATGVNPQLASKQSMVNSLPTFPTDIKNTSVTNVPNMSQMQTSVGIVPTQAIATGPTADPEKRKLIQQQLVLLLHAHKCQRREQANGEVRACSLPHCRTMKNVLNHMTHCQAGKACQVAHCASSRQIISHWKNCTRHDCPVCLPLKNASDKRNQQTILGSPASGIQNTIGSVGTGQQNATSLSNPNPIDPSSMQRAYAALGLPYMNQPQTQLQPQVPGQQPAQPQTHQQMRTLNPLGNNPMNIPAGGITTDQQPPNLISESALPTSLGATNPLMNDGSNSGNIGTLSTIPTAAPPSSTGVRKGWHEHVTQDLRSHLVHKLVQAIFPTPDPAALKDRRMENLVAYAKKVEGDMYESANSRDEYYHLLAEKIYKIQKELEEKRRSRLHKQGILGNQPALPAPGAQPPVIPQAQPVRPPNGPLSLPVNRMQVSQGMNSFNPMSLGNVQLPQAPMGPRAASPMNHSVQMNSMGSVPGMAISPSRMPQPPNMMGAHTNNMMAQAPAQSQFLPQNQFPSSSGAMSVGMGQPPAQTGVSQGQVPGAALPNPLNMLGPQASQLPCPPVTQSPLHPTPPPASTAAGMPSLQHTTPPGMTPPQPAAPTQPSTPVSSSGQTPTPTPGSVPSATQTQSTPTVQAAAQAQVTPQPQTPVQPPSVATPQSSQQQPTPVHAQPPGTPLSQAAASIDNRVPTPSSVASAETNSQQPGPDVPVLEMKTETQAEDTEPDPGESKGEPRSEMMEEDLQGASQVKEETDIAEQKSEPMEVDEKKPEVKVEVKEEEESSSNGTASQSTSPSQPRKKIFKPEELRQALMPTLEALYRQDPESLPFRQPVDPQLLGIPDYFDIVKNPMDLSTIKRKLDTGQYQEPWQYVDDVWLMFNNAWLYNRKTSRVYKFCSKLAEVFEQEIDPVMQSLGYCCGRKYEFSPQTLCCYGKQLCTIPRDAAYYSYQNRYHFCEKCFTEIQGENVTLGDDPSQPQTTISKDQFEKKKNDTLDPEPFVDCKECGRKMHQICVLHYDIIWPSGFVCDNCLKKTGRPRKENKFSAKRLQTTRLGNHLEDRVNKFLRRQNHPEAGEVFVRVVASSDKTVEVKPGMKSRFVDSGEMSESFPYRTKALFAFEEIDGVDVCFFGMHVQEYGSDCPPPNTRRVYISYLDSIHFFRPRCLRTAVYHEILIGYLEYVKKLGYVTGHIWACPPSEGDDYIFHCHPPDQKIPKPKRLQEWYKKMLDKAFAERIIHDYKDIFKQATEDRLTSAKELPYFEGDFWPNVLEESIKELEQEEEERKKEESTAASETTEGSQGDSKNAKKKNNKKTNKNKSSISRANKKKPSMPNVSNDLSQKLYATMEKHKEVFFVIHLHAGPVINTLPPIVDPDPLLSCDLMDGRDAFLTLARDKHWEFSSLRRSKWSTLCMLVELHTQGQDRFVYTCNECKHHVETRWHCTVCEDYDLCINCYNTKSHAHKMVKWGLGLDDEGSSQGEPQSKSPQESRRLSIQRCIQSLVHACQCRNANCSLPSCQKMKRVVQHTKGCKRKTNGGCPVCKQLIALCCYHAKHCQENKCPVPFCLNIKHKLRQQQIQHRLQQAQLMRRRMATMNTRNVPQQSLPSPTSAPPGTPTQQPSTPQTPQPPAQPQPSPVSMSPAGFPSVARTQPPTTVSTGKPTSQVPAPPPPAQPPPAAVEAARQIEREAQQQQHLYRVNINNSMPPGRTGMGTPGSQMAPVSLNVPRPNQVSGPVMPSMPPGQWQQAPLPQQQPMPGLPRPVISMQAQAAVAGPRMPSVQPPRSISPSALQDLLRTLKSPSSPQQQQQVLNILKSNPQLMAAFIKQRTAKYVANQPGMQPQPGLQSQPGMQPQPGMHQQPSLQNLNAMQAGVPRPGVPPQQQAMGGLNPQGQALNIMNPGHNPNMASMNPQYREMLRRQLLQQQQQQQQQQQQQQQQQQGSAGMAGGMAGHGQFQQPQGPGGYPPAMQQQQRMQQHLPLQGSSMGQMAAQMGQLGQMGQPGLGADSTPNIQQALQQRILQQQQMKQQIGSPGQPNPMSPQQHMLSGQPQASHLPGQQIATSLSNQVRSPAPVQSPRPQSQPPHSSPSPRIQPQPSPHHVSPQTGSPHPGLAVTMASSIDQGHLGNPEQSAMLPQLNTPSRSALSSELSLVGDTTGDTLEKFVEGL

| SMILES | ΔTm [1] | ΔTm [2] | ΔTm [3] | ΔTm [4] | IC50 [5] | IC50 [6] | Papp at 10 µM [7] | inhibition at 1 µM (RAW264.7) |
| --- | --- | --- | --- | --- | --- | --- | --- | --- |
| CC(Nc1ccc2c3c(cccc13)C(=O)N2C)c1ccccc1 (stereo unspecified) | 0.13 °C | 3.15 °C | 4.33 °C | 0.55 °C | – | – | – | – |
| CN1C(=O)c2cccc3c(NS(=O)(=O)c4ccccc4)ccc1c23 | -0.31 °C | 5.72 °C | 1.93 °C | 1.51 °C | 2620 nM | 709 nM | – | – |
| CN1C(=O)c2cccc3c(NCc4ccccc4)ccc1c23 | 1.92 °C | 2.7 °C | -0.9 °C | 1.6 °C | – | – | – | – |
| CN1C(=O)c2cccc3c(NC(=O)c4ccccc4)ccc1c23 | 2.17 °C | 2.17 °C | 4.1 °C | 0.93 °C | – | – | – | – |
| CN1C(=O)c2cccc3c(S(=O)(=O)Nc4ccccc4)ccc1c23 | -0.03 °C | 2.19 °C | 0.47 °C | 0.53 °C | – | – | – | – |
| COc1ccccc1S(=O)(=O)Nc1ccc2c3c(cc(-c4ccc(C)o4)cc13)C(=O)N2C | – | – | – | – | 47000 nM | 54.8 nM | 0.006 ×10⁻⁶ cm/s | 58.5% |
